Read-outs that look alike come from different tables or passages of the source.
Experiments:
[1] = test system: Eubacterium aerofaciens ATCC 25986 strain; assay: Assimilation test; format: cell-based; conditions: PYF medium with 0.5% saccharide, 37° C., four days, anaerobic
[2] = test system: Escherichia coli IFO 3301 strain; assay: Assimilation test; format: cell-based; conditions: PYF medium with 0.5% saccharide, 37° C., four days, anaerobic
salivary amylase [3] = molecular target: T1, salivary amylase (Homo sapiens, UniProt P0DUB6)
T1 sequence (P0DUB6 16-511): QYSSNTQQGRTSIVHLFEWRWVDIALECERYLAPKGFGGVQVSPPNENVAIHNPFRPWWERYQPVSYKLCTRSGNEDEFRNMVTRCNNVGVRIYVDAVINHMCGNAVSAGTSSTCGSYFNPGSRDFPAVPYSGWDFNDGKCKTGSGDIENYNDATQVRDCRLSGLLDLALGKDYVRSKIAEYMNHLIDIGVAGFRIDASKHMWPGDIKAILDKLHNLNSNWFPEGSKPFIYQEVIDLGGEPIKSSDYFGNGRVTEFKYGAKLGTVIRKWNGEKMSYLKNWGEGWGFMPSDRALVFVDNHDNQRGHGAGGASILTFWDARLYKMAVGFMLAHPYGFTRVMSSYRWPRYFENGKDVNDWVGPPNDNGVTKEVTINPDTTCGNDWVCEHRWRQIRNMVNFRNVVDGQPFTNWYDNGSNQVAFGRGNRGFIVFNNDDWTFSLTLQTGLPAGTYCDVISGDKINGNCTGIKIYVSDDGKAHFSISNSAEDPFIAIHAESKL

[4] = test system: Bacteroides vulgatus JCM 5826 strain; assay: Assimilation test; format: cell-based; conditions: PYF medium with 0.5% saccharide, 37° C., four days, anaerobic
[5] = test system: α-isomaltosyl-transferring enzyme from Bacillus globisporus C11; assay: Specificity to transferring acceptor; format: biochemical; conditions: panose as saccharide donor, 10 units/g substrate, 3.2% (w/v), 30° C., pH 6.0, 24 hours
Procedure, shortened: (§1)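 Candidate acceptor saccharides mixed with panose donor at equal concentration, 10 units/g substrate enzyme, total saccharide 3.2% (w/v), reacted 24 h at 30 °C, pH 6.0. Transfer product formation scored positive/negative by GLC (mono-/disaccharides) or HPLC (tri- and higher).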

[6] = test system: α-isomaltosyl-transferring enzyme from Arthrobacter ramosus S1; assay: Specificity to transferring acceptor; format: biochemical; conditions: panose as saccharide donor, 10 units/g substrate, 3.2% (w/v), 30° C., pH 6.0, 24 hours
Procedure, shortened: as §1

[7] = test system: α-isomaltosyl-transferring enzyme from Bacillus globisporus N75; assay: Specificity to transferring acceptor; format: biochemical; conditions: panose as saccharide donor, 10 units/g substrate, 3.2% (w/v), 30° C., pH 6.0, 24 hours
Procedure, shortened: as §1

[8] = test system: α-isomaltosyl-transferring enzyme from Arthrobacter globiformis A19; assay: Specificity to transferring acceptor; format: biochemical; conditions: partially purified enzyme, panose as saccharide donor, 10 units/g substrate, 3.2% (w/v), 30° C., pH 6.0, 24 hours
Procedure, shortened: as §1

[9] = test system: α-isomaltosyl-transferring enzyme from Bacillus globisporus C9; assay: Specificity to transferring acceptor; format: biochemical; conditions: panose as saccharide donor, 10 units/g substrate, 3.2% (w/v), 30° C., pH 6.0, 24 hours
Procedure, shortened: as §1

salivary amylase [10] = molecular target: T1, salivary amylase; assay: Digestion test in vitro

Row | Compound | Assimilability [1] | Assimilability [2] | Decomposition percentage by digestive enzyme (salivary amylase [3]) [%] | Assimilability [4] | Product of transferring reaction, Enzyme of Strain C11 [5] | Product of transferring reaction, Enzyme of Strain S1 [6] | Product of transferring reaction, Enzyme of Strain N75 [7] | Product of transferring reaction, Enzyme of Stain A19 [8] | Product of transferring reaction, Enzyme of Strain C9 [9] | Decomposition percentage by digestive enzyme (salivary amylase [10]) [%]
1 | OCC1OC2OCC3O[C@H](O[C@H]4C(O)C(CO)OC(OCC5O[C@H](O[C@@H](C1O)C2O)C(O)C(O)[C@@H]5O)C4O)C(O)C(O)[C@@H]3O (stereo partly drawn) [Cyclotetrasaccharide, cyclo{→6)-α-D-glucopyranosyl-(1→3)-α-D-glucopyranosyl-(1→6)-α-D-glucopyranosyl-(1→3)-α-D-glucopyranosyl-(1→}] | − (negative (−) when the post culture had a pH of 6.0 or higher) | − (negative (−) when the post culture had a pH of 6.0 or higher) | 0.0 | − (negative (−) when the post culture had a pH of 6.0 or higher) |  |  |  |  |  | 
2 | OC[C@@H](O)[C@@H](O[C@H]1O[C@H](CO)[C@@H](O)[C@H](O)[C@H]1O)[C@H](O)[C@@H](O)CO [Maltitol, maltitol] |  |  |  |  | + (a saccharide-transferred product was formed in an amount of over one percent but below 10% to the total sugars) | + (a saccharide-transferred product was formed in an amount of over one percent but below 10% to the total sugars) | + (a saccharide-transferred product was formed in an amount of over one percent but below 10% to the total sugars) | + (a saccharide-transferred product was formed in an amount of over one percent but below 10% to the total sugars) | + (a saccharide-transferred product was formed in an amount of over one percent but below 10% to the total sugars) | 0.0

From patent US7192746B2, “α-Isomaltosyltransferase, process for producing the same and use thereof” (Kabushiki Kaisha Hayashibara Seibutsu Kagaku Kenkyujo, priority 2000, dated 2007)
